Results reported in US20060148858A1, “1, 2-Azole derivatives with hypoglycemic and hypolipidemic activity” (priority 2002, published 2006).

Row | melting point | SMILES
1 | 91 to 92 °C | CCOc1nn(-c2ccc(C(F)(F)F)cn2)cc1CCCOc1ccc(OC(C)(C)C(=O)O)cc1 [Example 18, 2-[4-(3-{3-ethoxy-1-[5-(trifluoromethyl)-2-pyridyl]-1H-pyrazol-4-yl}propoxy)phenoxy]-2-methylpropionic acid]
2 | 151 to 152 °C | CCOc1cc(OCc2cn(-c3ccc(C(F)(F)F)cn3)nc2C)ccc1CCC(=O)O [Example 19, 3-(2-ethoxy-4-{3-methyl-1-[5-(trifluoromethyl)-2-pyridyl]-1H-pyrazol-4-ylmethoxy}phenyl)propionic acid]
3 | 102 to 103 °C | CC(C)c1nn(-c2ccc(C(F)(F)F)cn2)cc1CCCOc1cccc(CCC(=O)O)c1 [Example 23, 3-[3-(3-{3-isopropyl-1-[5-(trifluoromethyl)-2-pyridyl]-1H-pyrazol-4-yl}propoxy)phenyl]propionic acid]
4 | 131 to 132 °C | CC(C)c1nn(-c2ccc(C(F)(F)F)cn2)cc1CCCOc1cc(CCC(=O)O)n(C)n1 [Example 25, 3-[3-(3-{3-isopropyl-1-[5-(trifluoromethyl)-2-pyridyl]-1H-pyrazol-4-yl}propoxy)-1-methyl-1H-pyrazol-5-yl]propionic acid]
5 | 141 to 142 °C | CC(C)c1nn(-c2ccc(C(F)(F)F)cn2)cc1COc1cc(CCC(=O)O)n(C)n1 [Example 27, 3-(3-{3-isopropyl-1-[5-(trifluoromethyl)-2-pyridyl]-1H-pyrazol-4-ylmethoxy}-1-methyl-1H-pyrazol-5-yl)propionic acid]
6 | 152 to 153 °C | Cc1nn(-c2ccc(C(F)(F)F)cn2)cc1COc1cccc(OC(C)(C)C(=O)O)c1 [Example 32, 2-methyl-2-(3-{3-methyl-1-[5-(trifluoromethyl)-2-pyridyl]-1H-pyrazol-4-ylmethoxy}phenoxy)propionic acid]
7 | 88 to 89 °C | CCOc1nn(-c2ccc(C(F)(F)F)cn2)cc1CCCOc1cccc(CCC(=O)O)c1 [Example 33, 3-[3-(3-{3-ethoxy-1-[5-(trifluoromethyl)-2-pyridyl]-1H-pyrazol-4-yl}propoxy)phenyl]propionic acid]
8 | 208 to 209 °C | Cc1nn(-c2ccc(C(F)(F)F)cn2)cc1COc1cc(/C=C/C(=O)O)n(C)n1 [Example 37, (E)-3-(1-methyl-3-{3-methyl-1-[5-(trifluoromethyl)-2-pyridyl]-1H-pyrazol-4-ylmethoxy}-1H-pyrazol-5-yl)propenoic acid]
9 | 154 to 155 °C | Cc1nn(-c2ccc(C(F)(F)F)cn2)cc1COc1cc(CCC(=O)O)n(C)n1 [Example 38, 3-(1-methyl-3-{3-methyl-1-[5-(trifluoromethyl)-2-pyridyl]-1H-pyrazol-4-ylmethoxy}-1H-pyrazol-5-yl)propionic acid]
10 | 80 to 81 °C | CCCc1nn(-c2ccc(C(F)(F)F)cn2)cc1CCCOc1cc(CCC(=O)O)n(C)n1 [Example 45, 3-[1-methyl-3-(3-{3-propyl-1-[5-(trifluoromethyl)-2-pyridyl]-1H-pyrazol-4-yl}propoxy)-1H-pyrazol-5-yl]propionic acid]
11 | 100 to 101 °C | CCCc1nn(-c2ccc(C(F)(F)F)cn2)cc1CCCOc1ccccc1CC(=O)O [Example 47, [2-(3-{3-propyl-1-[5-(trifluoromethyl)-2-pyridyl]-1H-pyrazol-4-yl}propoxy)phenyl]acetic acid]
12 | 137 to 138 °C | CCOc1nn(-c2ccc(C(F)(F)F)cn2)cc1CCCOc1cc(CCC(=O)O)n(C)n1 [Example 48, 3-[3-(3-{3-ethoxy-1-[5-(trifluoromethyl)-2-pyridinyl]-1H-pyrazol-4-yl}propoxy)-1-methyl-1H-pyrazol-5-yl]propanoic acid]
13 | 134 to 135 °C | CCOc1nn(-c2ccc(C(F)(F)F)cn2)cc1CCOc1ccccc1CC(=O)O [Example 57, [2-(2-{3-ethoxy-1-[5-(trifluoromethyl)-2-pyridinyl]-1H-pyrazol-4-yl}ethoxy)phenyl]acetic acid]
14 | 123 to 124 °C | CCCc1nn(-c2ccc(C(F)(F)F)cn2)cc1CCCOc1nn(-c2ccccc2)cc1CC(=O)O [Example 67, [1-phenyl-3-(3-{3-propyl-1-[5-(trifluoromethyl)-2-pyridinyl]-1H-pyrazol-4-yl}propoxy)-1H-pyrazol-4-yl]acetic acid]
15 | 159 to 161 °C | O=C(O)CCc1cc(OCCCc2cn(-c3ccc(C(F)(F)F)cn3)nc2OCc2ccccc2)nn1-c1ccccc1 [Example 71, 3-[3-(3-{3-(benzyloxy)-1-[5-(trifluoromethyl)-2-pyridinyl]-1H-pyrazol-4-yl}propoxy)-1-phenyl-1H-pyrazol-5-yl]propanoic acid]
16 | 142 to 143 °C | CCOc1nn(-c2ccc(C(F)(F)F)cn2)cc1CCOc1ccc(CC(=O)O)cc1 [Example 73, [4-(2-{3-ethoxy-1-[5-(trifluoromethyl)-2-pyridinyl]-1H-pyrazol-4-yl}ethoxy)phenyl]acetic acid]
17 | 89 to 90 °C | CCOc1nn(-c2ccc(C(F)(F)F)cn2)cc1CCOc1cccc(OC(C)(C)C(=O)O)c1 [Example 74, 2-[3-(2-{3-ethoxy-1-[5-(trifluoromethyl)-2-pyridinyl]-1H-pyrazol-4-yl}ethoxy)phenoxy]-2-methylpropanoic acid]
18 | 250 to 251 °C | CCCc1nn(-c2ccc(C(F)(F)F)cn2)cc1CCCCn1cc(CCC(=O)[O-])c(OCC)n1.[Na+] [Example 78, sodium 3-[3-ethoxy-1-(4-{3-propyl-1-[5-(trifluoromethyl)-2-pyridinyl]-1H-pyrazol-4-yl}butyl)-1H-pyrazol-4-yl]propanoate]
19 | 121 to 122 °C | CCCc1nn(-c2ccc(C(F)(F)F)cn2)cc1CCCOc1ccc(CC(=O)O)cc1OC [Example 79, [3-methoxy-4-(3-{3-propyl-1-[5-(trifluoromethyl)-2-pyridyl]-1H-pyrazol-4-yl}propoxy)phenyl]acetic acid]
20 | 124 to 126 °C | CCCc1nn(-c2ccc(C(F)(F)F)cn2)cc1CCCOc1cc(CC(=O)O)ccc1OC [Example 80, [4-methoxy-3-(3-{3-propyl-1-[5-(trifluoromethyl)-2-pyridinyl]-1H-pyrazol-4-yl}propoxy)phenyl]acetic acid]

Row | SMILES | melting point
21 | O=C(O)Cc1cccc(OCCCCc2cc(-c3ccc(C(F)(F)F)cc3)no2)c1 [Example 16, [3-(4-{3-[4-(trifluoromethyl)phenyl]-5-isoxazolyl}butoxy)phenyl]acetic acid] | 134 to 135 °C
22 | O=C(O)Cc1ccccc1OCCCCc1cc(-c2ccc(C(F)(F)F)cc2)no1 [Example 17, [2-(4-{3-[4-(trifluoromethyl)phenyl]-5-isoxazolyl}butoxy)phenyl]acetic acid] | 122 to 123 °C
23 | CCOc1cc(OCCCCc2cc(-c3ccc(C(F)(F)F)cc3)no2)ccc1CCC(=O)O [Example 21, 3-[2-ethoxy-4-(4-{3-[4-(trifluoromethyl)phenyl]-5-isoxazolyl}butoxy)phenyl]propionic acid] | 105 to 106 °C
24 | CC(C)c1nn(-c2ccc(C(F)(F)F)cn2)cc1CCCCOc1cc(CCC(=O)O)n(C)n1 [Example 50, 3-[3-(4-{3-isopropyl-1-[5-(trifluoromethyl)-2-pyridinyl]-1H-pyrazol-4-yl}butoxy)-1-methyl-1H-pyrazol-5-yl]propanoic acid] | 113 to 114 °C
25 | CC(C)c1nn(-c2ccc(C(F)(F)F)cn2)cc1CCCCOc1ccccc1CC(=O)O [Example 52, [2-(4-{3-isopropyl-1-[5-(trifluoromethyl)-2-pyridinyl]-1H-pyrazol-4-yl}butoxy)phenyl]acetic acid] | 125 to 126 °C
26 | CC(C)c1nn(-c2ccc(C(F)(F)F)cn2)cc1CCCCOc1ccc(CC(=O)O)cc1 [Example 53, [4-(4-{3-isopropyl-1-[5-(trifluoromethyl)-2-pyridinyl]-1H-pyrazol-4-yl}butoxy)phenyl]acetic acid] | 130 to 131 °C
27 | CC(C)c1nn(-c2ccc(C(F)(F)F)cn2)cc1CCCCOc1cccc(OC(C)(C)C(=O)O)c1 [Example 54, 2-[3-(4-{3-isopropyl-1-[5-(trifluoromethyl)-2-pyridinyl]-1H-pyrazol-4-yl}butoxy)phenoxy]-2-methylpropanoic acid] | 81 to 82 °C
28 | CC(C)c1nn(-c2ccc(C(F)(F)F)cn2)cc1CCCCOc1ccc(CCC(=O)O)cc1 [Example 55, 3-[4-(4-{3-isopropyl-1-[5-(trifluoromethyl)-2-pyridinyl]-1H-pyrazol-4-yl}butoxy)phenyl]propanoic acid] | 144 to 145 °C
29 | CCCc1nn(-c2ccc(C(F)(F)F)cn2)cc1CCCCOc1nn(C)cc1CC(=O)O [Example 61, [1-methyl-3-(4-{3-propyl-1-[5-(trifluoromethyl)-2-pyridinyl]-1H-pyrazol-4-yl}butoxy)-1H-pyrazol-4-yl]acetic acid] | 95 to 97 °C
30 | CCCc1nn(-c2ccc(C(F)(F)F)cn2)cc1CCCCOc1ccc(CCC(=O)O)c(C)c1 [Example 64, 3-[2-methyl-4-(4-{3-propyl-1-[5-(trifluoromethyl)-2-pyridinyl]-1H-pyrazol-4-yl}butoxy)phenyl]propanoic acid] | 105 to 107 °C
31 | CCCc1nn(-c2ccc(C(F)(F)F)cn2)cc1CCCCOc1nn(-c2ccccc2)cc1CC(=O)O [Example 66, [1-phenyl-3-(4-{3-propyl-1-[5-(trifluoromethyl)-2-pyridinyl]-1H-pyrazol-4-yl}butoxy)-1H-pyrazol-4-yl]acetic acid] | 114 to 115 °C
32 | CC(C)c1nn(-c2ccc(C(F)(F)F)cn2)cc1CCCCOc1nn(-c2ccccc2)cc1CC(=O)O [Example 68, [3-(4-{3-isopropyl-1-[5-(trifluoromethyl)-2-pyridinyl]-1H-pyrazol-4-yl}butoxy)-1-phenyl-1H-pyrazol-4-yl]acetic acid] | 119 to 120 °C
33 | COc1cc(OCCCCc2cn(-c3ccc(C(F)(F)F)cn3)nc2C(C)C)ccc1CCC(=O)O [Example 69, 3-[4-(4-{3-isopropyl-1-[5-(trifluoromethyl)-2-pyridinyl]-1H-pyrazol-4-yl}butoxy)-2-methoxyphenyl]propanoic acid] | 125 to 126 °C
34 | CCCc1nn(-c2ccc(C(F)(F)F)cn2)cc1CCCCOc1cc(CCC(=O)O)n(C)n1 [Example 70, 3-[1-methyl-3-(4-{3-propyl-1-[5-(trifluoromethyl)-2-pyridinyl]-1H-pyrazol-4-yl}butoxy)-1H-pyrazol-5-yl]propanoic acid] | 122 to 123 °C
